Measurements: patent US20240116946A1 (Gilead Sciences, Inc., priority 2022, published 2024)
Read-outs that look alike come from different tables or passages of the source.

Tests used:
SARS-CoV-2-NLuc = assay: microbe, parasite or virus in culture; format: cell-based, SARS Coronavirus 2
[1] = target: recombinant SARS-CoV-2 Main protease (Mpro) (Severe acute respiratory syndrome coronavirus 2 (2019-nCoV) (SARS-CoV-2), UniProt P0DTD1); assay: Cov Mpro Biochemical IC50 Assay
[2] = Severe acute respiratory syndrome coronavirus, 48 h, read-out: MPro EC50
[3] = recombinant SARS-CoV-2 Mpro, fluorogenic peptide substrate, read-out: MPro IC50
[4] = recombinant SARS-CoV-2 Mpro 7.5 nM, fluorogenic peptide substrate 40 μM, read-out: MPro IC50
[5] = Severe acute respiratory syndrome coronavirus, 48 h; read-out: MPro EC50

SMILES	EC50 (SARS-CoV-2-NLuc; [2]) [nM]	IC50 [1, 4] [nM]	further results
O=c1[nH]c2cc(-c3cc4c(cc3Cl)OC(F)(F)O4)sc2c(=O)n1-c1cncc2ccccc12 [Example 348]	8930		IC50 [1, 3]: 4760 nM
COc1ccc(Cl)c(-c2cc3[nH]c(=O)n(-c4cncc5sc(C(C)(C)O)c(C)c45)c(=O)c3s2)c1 [Example 516]	7.87	5.27	
Cc1c(-c2ccccc2Cl)sc2[nH]c(=O)n(-c3cncc4ccccc34)c(=O)c12 [Example 75]	9390		IC50 [1, 3]: 854 nM
COc1cc(-c2cc3[nH]c(=O)n(-c4cncc5cccnc45)c(=O)c3cc2OC)c(C#N)cc1F [Example 684]	119	13.5	
COc1cc(-c2cc3[nH]c(=O)n(-c4cncc5cnn(C)c45)c(=O)c3s2)c(C#N)cc1F [Example 751, 5-fluoro-4-methoxy-2-[3-(1-methylpyrazolo[4,3-c]pyridin-7-yl)-2,4-dioxo-1H-thieno[3,2-d]pyrimidin-6-yl]benzonitrile]	216	11.1	
COc1ccc(Cn2c(=O)n(-c3cncc4ccccc34)c(=O)c3sc(-c4cccc5c4CCC5)cc32)cc1 [Example 167, 6-(2,3-dihydro-1H-inden-4-yl)-3-(isoquinolin-4-yl)-1-(4-methoxybenzyl)thieno[3,2-d]pyrimidine-2,4(1H,3H)-dione]	4510		IC50 [1, 3]: 49700 nM
O=c1[nH]c2cc(-c3c(Cl)cccc3-c3cn(CCO)nn3)ccc2c(=O)n1-c1cncc2ccccc12 [Example 293]	748		IC50 [1, 3]: 67.8 nM
Cc1cc(-c2cccc(Cl)c2-c2cc3[nH]c(=O)n(-c4cncc(C5CC5)c4)c(=O)c3s2)cnn1 [Example 615, 6-(2-chloro-6-(6-methylpyridazin-4-yl)phenyl)-3-(5-cyclopropylpyridin-3-yl)thieno[3,2-d]pyrimidine-2,4(1H,3H)-dione]		9.85	EC50 (SARS-CoV-2-NLuc; [5]): 140 nM
O=c1[nH]c2cc(-c3ccc4sccc4c3)ccc2c(=O)n1-c1cncc2ccccc12 [Example 49]	12800		IC50 [1, 3]: > 100000 nM
COc1cc(-c2cc3[nH]c(=O)n(-c4cncc5cc(C(=O)N6CCOCC6)sc45)c(=O)c3s2)c(Cl)cc1F [Example 649]	195	7.91	
COc1cc(-c2cc3c(s2)c(=O)n(-c2c(C)ccnc2F)c(=O)n3CCC#N)c(Cl)cc1F [Example 916]	30.3	11.5	
O=c1[nH]c2cc(-c3ccc(F)cc3Cl)ccc2c(=O)n1-c1cncc2ccccc12 [Example 183]	354		IC50 [1, 3]: 585 nM
O=c1[nH]c2cc(-c3ccccc3Cl)sc2c(=O)n1-c1cncc2c(Cl)cccc12 [Example 592]	39500	> 50000	
O=c1[nH]c2cc(-c3ccccc3OCc3ccccc3Cl)ccc2c(=O)n1-c1cncc2ccccc12 [Example 55]	1830		IC50 [1, 3]: 12800 nM
Cc1nn(C)cc1-c1cccc(Cl)c1-c1cc2[nH]c(=O)n(-c3cncc(C4CC4)c3)c(=O)c2s1 [Example 617]	19.5	7.26	
COc1ccc(C#N)c(-c2cc3[nH]c(=O)n(-c4cncc5ccc(N6CCn7nc(C(F)(F)F)nc7C6)cc45)c(=O)c3s2)c1 [Example 605]	91.2	10.1	
COc1ccc(C#N)c(-c2cc3[nH]c(=O)n(-c4cncc5ccc(N6CCn7c(nnc7C(F)(F)F)C6)cc45)c(=O)c3s2)c1 [Example 602]	359	5.77	
COc1ccc(Cl)c(-c2cc3[nH]c(=O)n(-c4cncc5ccc(N6CCS(=O)(=O)CC6)cc45)c(=O)c3s2)c1 [Example 226]	23.7		IC50 [1, 3]: 3.74 nM
COc1cc(-c2cc3c(s2)c(=O)n(-c2cc(C)cnn2)c(=O)n3CCC#N)c(Cl)cc1F [Example 931]	5.48	2.53	
Cc1c(-c2ccccc2Cl)sc2c1c(=O)n(-c1cncc3ccccc13)c(=O)n2CC1CCCC1 [Example 64]			EC50 (SARS-CoV-2-NLuc; [5]): 3140 nM; IC50 [1, 3]: 28400 nM
Cn1ncc2cncc(-n3c(=O)c4sc(-c5ccc(F)cc5Cl)cc4n(CCC#N)c3=O)c21 [Example 769, 3-(6-(2-chloro-4-fluorophenyl)-3-(1-methyl-1H-pyrazolo[4,3-c]pyridin-7-yl)-2,4-dioxo-3,4-dihydrothieno[3,2-d]pyrimidin-1(2H)-yl)propanenitrile]		8.55	EC50 (SARS-CoV-2-NLuc; [5]): 15.6 nM
NC(=O)c1ccccc1-c1cc2[nH]c(=O)n(-c3cncc4ccccc34)c(=O)c2s1 [Example 3]	> 50000		IC50 [1, 3]: 312 nM
COc1cc(-c2cc3c(s2)c(=O)n(-c2cncc4ccccc24)c(=O)n3CCCC#N)c(Cl)cc1F [Example 660]	16.7	17.6	
Cn1cc2cc(-c3cccc(Cl)c3-c3ccc4c(=O)n(-c5cncc6ccccc56)c(=O)[nH]c4c3)ccc2n1 [Example 247]	30.4		IC50 [1, 3]: 63 nM

SMILES	EC50 (SARS-CoV-2-NLuc; [2]) [nM]	IC50 [1, 4] [nM]	further results
COc1cc(-c2cc3c(s2)c(=O)n(-c2cncc4ccc(C#N)cc24)c(=O)n3CCC#N)c(Cl)cc1F [Example 1062]	5.42	4.87	
COc1cc(-c2cc3[nH]c(=O)n(-c4cncc5[nH]cc(C)c45)c(=O)c3s2)c(Cl)cc1F [Example 767]	20.2	5.16	
COc1cc(-c2cc3c(s2)c(=O)n(-c2cncc4ccc(C#CC(C)(C)O)cc24)c(=O)n3CCC#N)c(Cl)cc1F [Example 947]	14.2	7.28	
COc1cc(-c2cc3c(s2)c(=O)n(-c2cncc4nc(C)n(C)c24)c(=O)n3CCC#N)c(Cl)cc1F [Example 842, 3-(6-(2-chloro-4-fluoro-5-methoxyphenyl)-3-(1,2-dimethyl-1H-imidazo[4,5-c]pyridin-7-yl)-2,4-dioxo-3,4-dihydrothieno[3,2-d]pyrimidin-1(2H)-yl)propanenitrile]	27.5	6.66	
O=c1[nH]c2cc(-c3cccc(Cl)c3Cl)ccc2c(=O)n1-c1cncc2ccccc12 [Example 59]	6010		IC50 [1, 3]: > 100000 nM
Cn1ncc2cncc(-n3c(=O)c4sc(-c5cc(C#N)ccc5Cl)cc4n(CCC#N)c3=O)c21 [Example 811]	53.5	13.2	
Cc1nc2cncc(-n3c(=O)c4sc(-c5cc(F)c(F)cc5Cl)cc4n(CCC#N)c3=O)c2n1C [Example 860]	212	39.4	
O=C1COc2ccc(-c3cccc(Cl)c3-c3ccc4c(=O)n(-c5cncc6ccccc56)c(=O)[nH]c4c3)cc2N1 [Example 304]	20.5		IC50 [1, 3]: 11.5 nM
N#CCCn1c(=O)n(-c2cncc3ccccc23)c(=O)c2sc(-c3ccc(F)cc3Cl)cc21 [Example 827]	10.4	10.2	
COc1cc(-c2cc3c(s2)c(=O)n(-c2cncc4nnn(C(C)C)c24)c(=O)n3CCC#N)c(Cl)cc1F [Example 991]	49.8	16	
COc1ccc(Cl)c(-c2cc3[nH]c(=O)n(-c4cncc5cccnc45)c(=O)c3s2)c1 (single isomer, unassigned) [Example 467, 6-(2-chloro-5-methoxyphenyl)-3-(1,6-naphthyridin-8-yl)thieno[3,2-d]pyrimidine-2,4(1H,3H)-dione]		11.4	EC50 (SARS-CoV-2-NLuc; read-out: MPro EC50): 38.1 nM
COc1cc(-c2cc3[nH]c(=O)n(-c4cncc5c4c(C)nn5C)c(=O)c3s2)c(Cl)cc1F [Example 752]	8.41	6.96	
COc1cc(-c2cc3[nH]c(=O)n(-c4cncc5ccccc45)c(=O)c3cc2F)c(Cl)cc1F [Example 650, 7-(2-chloro-4-fluoro-5-methoxy-phenyl)-6-fluoro-3-(4-isoquinolyl)-1H-quinazoline-2,4-dione]			EC50 (SARS-CoV-2-NLuc; [5]): 33.9 nM; IC50 ([1]; MPro IC50, recombinant SARS-CoV-2 Mpro 7.5 nM, fluorogenic peptide substrate 40 μM): 31.7 nM
COc1cc(-c2cc3c(s2)c(=O)n(-c2cccnc2)c(=O)n3CCC#N)c(C#N)cc1F [Example 799]		10.3	EC50 (SARS-CoV-2-NLuc; [5]): 42.9 nM
COc1cc(-c2cc3c(s2)c(=O)n(-c2cncc4cnc(C)n24)c(=O)n3CCC#N)c(Cl)cc1F [Example 980]	10.4	7.64	
N#CCn1c(=O)n(-c2cncc3ccccc23)c(=O)c2sc(-c3cc(F)ccc3Cl)cc21 [Example 728]	4.34	2.7	
COc1cc(-c2cc3[nH]c(=O)n(-c4cncc5nc(C(F)(F)F)sc45)c(=O)c3s2)c(Cl)cc1F [Example 488]	618	1020	
COc1ccc2cncc(-n3c(=O)[nH]c4cc(-c5c(Cl)cccc5-c5cn6ncnc6c6c5CCC6)sc4c3=O)c2c1 [Example 564]	52.5	14.6	
Cc1cc(Cl)cc(Cl)c1-c1cc2[nH]c(=O)n(-c3cncc4ccccc34)c(=O)c2s1 [Example 721]	478	705	
O=c1[nH]c2cc(-c3ccccc3Cl)sc2c(=O)n1-c1cncc2ccc(N3CC4(COC4)C3)cc12 [Example 397]	15.2	3.51	
COc1ccc(Cl)c(-c2cc3[nH]c(=O)n(-c4cncc5ccc(CO)cc45)c(=O)c3s2)c1 [Example 552, 6-(2-chloro-5-methoxyphenyl)-3-(6-(hydroxymethyl)isoquinolin-4-yl)thieno[3,2-d]pyrimidine-2,4(1H,3H)-dione]	12.4	7.13	
O=c1[nH]c2cc(-c3c(Cl)cccc3-c3ccnc(C4CC4)c3)ccc2c(=O)n1-c1cncc2ccccc12 [Example 318]	< 3.42		IC50 [1, 3]: 8.65 nM
COc1cc(-c2cc3c(s2)c(=O)n(-c2cncc4cnn(C)c24)c(=O)n3CCC#N)c(C)cc1F [Example 665]	10.5	7.27	
COc1cc(-c2cc3c(s2)c(=O)n(-c2cncc4cnn(C)c24)c(=O)n3CC2(CC#N)CC2)c(Cl)cc1F [Example 659]		40.9	
